Results published in patent US20230372313A1, “METHODS FOR REDUCING GLYCOSPHINGOLIPID CONCENTRATION IN BRAIN TISSUE AND METHODS OF TREATMENT OF NEURODEGENERATIVE DISEASES INVOLVING THE SAME” (GENZYME CORPORATION, priority 2020, published 2023).
Like-named read-outs stand apart in the source and are kept apart here.

Test: Plasma pharmacokinetics of Compound 2 in PD participants (LC-MS/MS)
Assay type: in vivo, human
Experimental: Participants were randomised to 3 doses of once-daily orally administered Compound 2 or placebo, in sequential cohort design, and were followed up to 36 weeks (52 weeks for Japanese participants). Participants in the low-dose group received 4 mg of Compound 2 as a once daily oral dose; participants in the mid-dose group received 8 mg of Compound 2 a once daily oral dose; and participants in the high-dose group received 15 mg of Compound 2 a once daily oral dose.
Analyses were based on all available data from participants who enrolled in part 1 of the trial and were randomised to receive either Compound 2 or placebo for up to 52 weeks for Japanese participants and 36 weeks for the ROW population. As part 1 was an exploratory, dose-escalation study, the sample size was not based on a statistical power calculation. Participants included in the primary safety analyses were those who were randomized and received at least one dose of Compound 2 or placebo. A data monitoring committee was responsible for overseeing the safety of patients and the risk/benefit ratio throughout the study. Duration of exposure to Compound 2 was different among the doses, as per the sequential cohort design, with the low- and high-dose cohorts commencing the study first and last, respectively. For pharmacokinetics, plasma parameters were calculated using noncompartmental methods, from plasma Compound 2 concentrations obtained after single dose administration. AUC0-24 and AUC0-48 were calculated using the trapezoidal method over a predefined time period of 24 hours or 48 hours, respectively. CLss/F was calculated using the following equation: CLss/F=Dose/AUCτ, where τ is the dosing interval. For pharmacodynamics, percent reduction of plasma or CSF GL-1 from baseline was calculated as (value−baseline)/baseline×100. Formal statistical testing was not conducted on MDS-UPDRS scale assessments.
The secondary outcome was to evaluate the pharmacokinetic profile of Compound 2 in plasma and cerebrospinal fluid (CSF) over a 4-week period. Plasma pharmacokinetic parameters included maximum plasma concentration (Cmax), time to Cmax (tmax), and area under the plasma concentration versus time curve from 0 to 24 h (AUC0-24). All parameters were assessed at Week 0 and Week 4 after treatment. In addition, AUC0-48 was assessed at Week 0, trough plasma concentration observed just before treatment administration during repeated dosing (Ctrough) was assessed at Weeks 2, 4, and 8 (FIG. 3), and total systemic clearance from plasma at steady state (CLSS/F) was assessed at Week 4. Plasma samples were collected at 1 hour pre-dose and 1, 2, 4, 8, 24, and 48 hours postdose. Compound 2 concentration in plasma was determined using a liquid chromatography tandem mass spectrometry method with a lower limit of quantification of 0.500 ng/mL. CSF samples were collected by lumbar puncture during the screening period (within 14 days prior to randomisation) or on the day of randomisation, and at Week 4, within 2 to 4 hours postdose. Compound 2 concentration in CSF was determined using a liquid chromatography tandem mass spectrometry method with a lower limit of quantification of 0.100 ng/mL.

## CC(C)(NC(=O)O[C@@H]1CN2CCC1CC2)c1csc(-c2ccc(F)cc2)n1 [Compound 2, (S)-quinuclidin-3-yl (2-(2-(4-fluorophenyl)thiazol-4-yl)propan-2-yl)carbamate]
Japanese and ROW cohorts, 4, 8, 15 mg
  increase of Compound 2 concentration in plasma with dose: close to dose-proportional manner
human, plasma, oral, plasma, Week 4, Japanese participants, across all doses tested, read-out: median tmax values
  Tmax: 2.1 to 4.33 h
human, plasma, oral, plasma, Week 4, ROW participants, across all doses tested, read-out: median tmax values
  Tmax: 1.96 to 3.55 h
human, plasma, po, 4 mg, Week 4, Japan, Low 4 mg once daily oral, n = 3
  Cmax at 4 weeks: 56.3 ng/mL
human, plasma, po, 4 mg, plasma, Day 1, Japan, Low 4 mg oral, n = 3, read-out: AUC0-24, Geometric mean
  AUC(0-t): 390 ng·h/mL
human, plasma, po, 4 mg, plasma, Day 1, Japan, Low 4 mg oral, n = 3, read-out: AUC0-24, mean
  AUC(0-t): 393 ng·h/mL
human, plasma, po, 4 mg, plasma, Day 1, Japan, Low 4 mg oral, n = 3, read-out: AUC0-48, Geometric mean
  AUC(0-t): 660 ng·h/mL
human, plasma, po, 4 mg, plasma, Day 1, Japan, Low 4 mg oral, n = 3, read-out: AUC0-48, mean
  AUC(0-t): 661 ng·h/mL
human, plasma, po, 4 mg, plasma, Day 1, Japan, Low 4 mg oral, n = 3, read-out: Cmax, Geometric mean
  Cmax: 21.7 ng/mL
human, plasma, po, 4 mg, plasma, Day 1, Japan, Low 4 mg oral, n = 3, read-out: Cmax, mean
  Cmax: 21.8 ng/mL
human, plasma, po, 4 mg, plasma, Day 1, Japan, Low 4 mg oral, n = 3, read-out: tmax, median
  Tmax: 4.33 h
human, plasma, po, 4 mg, plasma, Day 1, ROW, Low 4 mg oral, n = 4, read-out: AUC0-24, Geometric mean
  AUC(0-t): 249 ng·h/mL
human, plasma, po, 4 mg, plasma, Day 1, ROW, Low 4 mg oral, n = 4, read-out: AUC0-24, mean
  AUC(0-t): 255 ng·h/mL
human, plasma, po, 4 mg, plasma, Day 1, ROW, Low 4 mg oral, n = 4, read-out: AUC0-48, Geometric mean
  AUC(0-t): 419 ng·h/mL
human, plasma, po, 4 mg, plasma, Day 1, ROW, Low 4 mg oral, n = 4, read-out: AUC0-48, mean
  AUC(0-t): 431 ng·h/mL
human, plasma, po, 4 mg, plasma, Day 1, ROW, Low 4 mg oral, n = 4, read-out: Cmax, Geometric mean
  Cmax: 13.6 ng/mL
human, plasma, po, 4 mg, plasma, Day 1, ROW, Low 4 mg oral, n = 4, read-out: Cmax, mean
  Cmax: 13.8 ng/mL
human, plasma, po, 4 mg, plasma, Day 1, ROW, Low 4 mg oral, n = 4, read-out: tmax, median
  Tmax: 4.07 h
human, plasma, po, 4 mg, plasma, Week 4, Japan, Low 4 mg once daily oral, n = 1, read-out: AUC0-24, Geometric mean
  AUC(0-t): 1130 ng·h/mL
human, plasma, po, 4 mg, plasma, Week 4, Japan, Low 4 mg once daily oral, n = 1, read-out: AUC0-24, mean
  AUC(0-t): 1130 ng·h/mL
human, plasma, po, 4 mg, plasma, Week 4, Japan, Low 4 mg once daily oral, n = 3, read-out: Cmax, Geometric mean
  Cmax: 56.2 ng/mL
human, plasma, po, 4 mg, plasma, Week 4, Japan, Low 4 mg once daily oral, n = 3, read-out: tmax, median
  Tmax: 4.33 h
human, plasma, po, 4 mg, plasma, Week 4, ROW, Low 4 mg once daily oral, n = 4, read-out: AUC0-24, Geometric mean
  AUC(0-t): 763 ng·h/mL
human, plasma, po, 4 mg, plasma, Week 4, ROW, Low 4 mg once daily oral, n = 4, read-out: AUC0-24, mean
  AUC(0-t): 766 ng·h/mL
human, plasma, po, 4 mg, plasma, Week 4, ROW, Low 4 mg once daily oral, n = 4, read-out: Cmax, Geometric mean
  Cmax: 41 ng/mL
human, plasma, po, 4 mg, plasma, Week 4, ROW, Low 4 mg once daily oral, n = 4, read-out: Cmax, mean
  Cmax: 41.6 ng/mL
human, plasma, po, 4 mg, plasma, Week 4, ROW, Low 4 mg once daily oral, n = 4, read-out: tmax, median
  Tmax: 1.96 h
human, plasma, po, 8 mg, plasma, Day 1, Japan, Mid 8 mg oral, n = 3, read-out: AUC0-24, Geometric mean
  AUC(0-t): 596 ng·h/mL
human, plasma, po, 8 mg, plasma, Day 1, Japan, Mid 8 mg oral, n = 3, read-out: AUC0-24, mean
  AUC(0-t): 623 ng·h/mL
human, plasma, po, 8 mg, plasma, Day 1, Japan, Mid 8 mg oral, n = 3, read-out: AUC0-48, Geometric mean
  AUC(0-t): 1070 ng·h/mL
human, plasma, po, 8 mg, plasma, Day 1, Japan, Mid 8 mg oral, n = 3, read-out: AUC0-48, mean
  AUC(0-t): 1130 ng·h/mL
human, plasma, po, 8 mg, plasma, Day 1, Japan, Mid 8 mg oral, n = 3, read-out: Cmax, Geometric mean
  Cmax: 29.9 ng/mL
human, plasma, po, 8 mg, plasma, Day 1, Japan, Mid 8 mg oral, n = 3, read-out: Cmax, mean
  Cmax: 31.3 ng/mL
human, plasma, po, 8 mg, plasma, Day 1, Japan, Mid 8 mg oral, n = 3, read-out: tmax, median
  Tmax: 4.02 h
human, plasma, po, 8 mg, plasma, Day 1, ROW, Mid 8 mg oral, n = 5, read-out: AUC0-24, Geometric mean
  AUC(0-t): 422 ng·h/mL
human, plasma, po, 8 mg, plasma, Day 1, ROW, Mid 8 mg oral, n = 5, read-out: AUC0-24, mean
  AUC(0-t): 457 ng·h/mL
human, plasma, po, 8 mg, plasma, Day 1, ROW, Mid 8 mg oral, n = 5, read-out: AUC0-48, Geometric mean
  AUC(0-t): 735 ng·h/mL
human, plasma, po, 8 mg, plasma, Day 1, ROW, Mid 8 mg oral, n = 5, read-out: AUC0-48, mean
  AUC(0-t): 776 ng·h/mL
human, plasma, po, 8 mg, plasma, Day 1, ROW, Mid 8 mg oral, n = 5, read-out: Cmax, Geometric mean
  Cmax: 23.8 ng/mL
human, plasma, po, 8 mg, plasma, Day 1, ROW, Mid 8 mg oral, n = 5, read-out: Cmax, mean
  Cmax: 26.3 ng/mL
human, plasma, po, 8 mg, plasma, Day 1, ROW, Mid 8 mg oral, n = 5, read-out: tmax, median
  Tmax: 4.17 h
human, plasma, po, 8 mg, plasma, Week 4, Japan, Mid 8 mg once daily oral, n = 3, read-out: AUC0-24, Geometric mean
  AUC(0-t): 1620 ng·h/mL
human, plasma, po, 8 mg, plasma, Week 4, Japan, Mid 8 mg once daily oral, n = 3, read-out: AUC0-24, mean
  AUC(0-t): 1650 ng·h/mL
human, plasma, po, 8 mg, plasma, Week 4, Japan, Mid 8 mg once daily oral, n = 3, read-out: Cmax, Geometric mean
  Cmax: 82.8 ng/mL
human, plasma, po, 8 mg, plasma, Week 4, Japan, Mid 8 mg once daily oral, n = 3, read-out: tmax, median
  Tmax: 2.12 h
human, plasma, po, 8 mg, plasma, Week 4, ROW, Mid 8 mg once daily oral, n = 5, read-out: AUC0-24, Geometric mean
  AUC(0-t): 1490 ng·h/mL
human, plasma, po, 8 mg, plasma, Week 4, ROW, Mid 8 mg once daily oral, n = 5, read-out: AUC0-24, mean
  AUC(0-t): 1510 ng·h/mL
human, plasma, po, 8 mg, plasma, Week 4, ROW, Mid 8 mg once daily oral, n = 5, read-out: Cmax, Geometric mean
  Cmax: 75.8 ng/mL
human, plasma, po, 8 mg, plasma, Week 4, ROW, Mid 8 mg once daily oral, n = 5, read-out: Cmax, mean
  Cmax: 77.8 ng/mL
human, plasma, po, 8 mg, plasma, Week 4, ROW, Mid 8 mg once daily oral, n = 5, read-out: tmax, median
  Tmax: 3.55 h
